According to patent US9265784B2, “Antineoplastic combinations of 4-anilino-3-cyanoquinolines and capecitabine” (WYETH LLC, priority 2008, dated 2016):
Like-named read-outs stand apart in the source and are kept apart here.

Tests used:
Assay type in all cases: in vivo, human
[1] = test system: erbB-2-overexpressing advanced or metastatic breast cancer; test: Ongoing phase 2 study of neratinib 240 mg daily oral, efficacy
Procedure: (§1) In an ongoing phase 2 study, neratinib is being administered as daily oral doses of 240 mg in subjects with erbB-2-overexpressing advanced or metastatic breast cancer, who received up to 4 prior cytotoxic chemotherapy treatment regimens, with prior trastuzumab therapy for metastatic or locally advanced disease (≧6 weeks) or with no prior exposure to erbB-2-targeted treatment. Preliminary results were obtained for 124 subjects evaluable for efficacy based on independent assessment and 131 subjects evaluable per investigator assessment. […] Median Progression Free Survival (PFS) for independent (and investigator) assessment was 23 (22), with a 16-week PFS rate of 61% (57%) in subjects who had received prior trastuzumab. For trastuzumab naïve subjects, PFS per independent (and investigator) assessment was 40 (35), with a 16-week PFS rate of 75% (78%).

[2] = Ongoing phase 2 study of neratinib 240 mg daily oral, adverse events
Procedure: as §1
The predominant AE was diarrhea, which was reversible and generally manageable by medication, temporary discontinuation of treatment, or dose reduction. Diarrhea that was considered related to neratinib occurred with a frequency of 94% of the subjects. Of those, grade 3-4 diarrhea was experienced by 25% of the subjects. Other common AEs were nausea (related to neratinib in 30%, grade 3-4 in 2% of the subjects), vomiting (related in 23%, grade 3-4 in 2%), fatigue (related in 20%, grade 3-4 in <2%), and anorexia (related in 16%, grade 3-4 in 4%). […] Presented at the Poster presented at the SABCS, San Antonio, USA].

[3] = Preliminary pharmacokinetic analyses of neratinib after oral administration; conditions: for AUC / Cmax: oral daily; for AUC: read-out: Mean steady-state AUC; for Cmax: read-out: Mean steady-state Cmax
From the text: The mean accumulation ratio was 1.2 after a 240-mg dose, indicating no significant accumulation of neratinib after repeated daily dose administration at the dose to be used in this proposed trial.
The data indicated a slow distribution of neratinib with a large apparent volume of distribution (Vz/F on day 1: about 3188 to 6181 L) after oral absorption. […] There was moderate to large variability in neratinib t1/2, Cmax, and AUC; coefficients of variation (CVs) generally ranged from 8% to 90%.

[4] = prior trastuzumab, independent assessment
[5] = prior trastuzumab, investigator assessment
[6] = trastuzumab naïve subjects, independent assessment
[7] = trastuzumab naïve subjects, investigator assessment
[8] = human, in vivo, 400 mg (highest dose)
[9] = human, in vivo, 180-mg dose group
[10] = human, in vivo, 240-mg dose group
[11] = human, in vivo, 320-mg dose group

## CCOc1cc2ncc(C#N)c(Nc3ccc(OCc4ccccn4)c(Cl)c3)c2cc1NC(=O)/C=C/CN(C)C [neratinib, (2E)-N-[4-[[3-chloro-4-[(pyridin-2-yl)methoxy]phenyl]amino]-3-cyano-7-ethoxyquinolin-6-yl]-4-(dimethylamino)but-2-enamide]
[1]; [4]
  16-week PFS rate: 61%
  Median Progression Free Survival (PFS): 23
[1]; [5]
  16-week PFS rate: 57%
  Median Progression Free Survival (PFS): 22
[1]; subjects with erbB-2-positive advanced breast cancer, 240 mg daily oral
  antitumor activity: significant antitumor activity
[1]; subjects with prior trastuzumab containing therapy in the metastatic setting, independently assessed, 240 mg daily oral
  ORR: 26%
[1]; subjects with prior trastuzumab containing therapy in the metastatic setting, investigator assessed, 240 mg daily oral
  ORR: 35%
[1]; [6]
  16-week PFS rate: 75%
  PFS: 40
[1]; trastuzumab naïve subjects, independently assessed, 240 mg daily oral
  ORR: 51%
[1]; trastuzumab naïve subjects, investigator assessed, 240 mg daily oral
  ORR: 62%
[1]; [7]
  16-week PFS rate: 78%
  PFS: 35
[2]; 240 mg daily oral
  Diarrhea considered related to neratinib, frequency of subjects: 94%
  anorexia grade 3-4, subjects: 4%
  anorexia related, subjects: 16%
  fatigue grade 3-4, subjects: < 2%
  fatigue related, subjects: 20%
  grade 3-4 diarrhea, subjects: 25%
  nausea grade 3-4, subjects: 2%
  nausea related to neratinib, subjects: 30%
  vomiting grade 3-4, subjects: 2%
  vomiting related, subjects: 23%
[2]; daily oral doses of 240 mg
  tolerability: generally well tolerated
[3]; after a 240-mg dose, repeated daily administration
  mean accumulation ratio: 1.2
[3]; after oral administration
  dose dependence of Cmax and AUC: increased in a dose-dependent manner
[3]; [8]
  AUC: 1700 ng·h/mL
  Cmax: 105 ng/mL
[3]; [9]
  AUC: 975 ng·h/mL
  Cmax: 70.1 ng/mL
[3]; [10]
  AUC: 939 ng·h/mL
  Cmax: 73.5 ng/mL
[3]; [11]
  AUC: 1330 ng·h/mL
  Cmax: 90.4 ng/mL
[3]; human, in vivo, day 1, after oral absorption, read-out: apparent volume of distribution (Vz/F)
  Vd/F: 3190 to 6180 L
[3]; human, in vivo, oral administration, day 1, read-out: mean apparent terminal half-life (t1/2)
  half-life: 13 to 17 h
[3]; oral
  absorption: relatively slow
